Measurements from patent US20240140895A1, “NOVEL AROMATIC MOLECULES” (XENIOPRO GmbH, priority 2018, published 2024).

What was measured:
[1] = tested on: SCC-25 cells (human tongue squamous cell carcinoma cells); assay: Proliferation assay (alamarBlue) with SCC-25 cells; assay type: cell-based
Text: The antiproliferative activities of compounds falling under formula (Ia), (Tb) and (Ic), respectively, were investigated on cells or cell lines originating from a disorder of the haematopoietic system, including the myeloid cell compartment and the lymphoid cell compartment (T-cells and B-cells), the neuroendocrine system, the cervix, the breast, the ovaries, the lung, the gastrointestinal tract, and the mucosal epithelium, as well as from the skin epithelium and from the muscle. To this end, HL-60 cells, NB-4 cells, HH cells, RPMI-8402 cells, TANOUE cells, TT cells, HeLa cells, MDA-MB-231 cells, FU-OV-1 cells, LOU-NH91 cells, 23132/87 cells, CAL-27 cells, BHY cells, SCC-25 cells, A-431 cells, human primary epidermal keratinocytes (HPEK), and C2C12 cells were seeded into 96-well plates suitable for fluorescence assays (CORNING #3598) at following initial cell numbers: 1000 cells per well for HL-60; 1000 cells per well for NB-4; 5000 cells per well for HH; 5000 cells per well for RPMI-8402; 1500 cells per well for TANOUE; 9000 cells per well for TT; 2000 cells per well for HeLa; 3000 cells per well for MDA-MB-231; 3000 cells per well for FU-OV-1; 4000 cells per well for LOU-NH91; 2000 cells per well for 23132/87; 2000 cells per well for CAL-27; 1500 cells per well for BHY; 1500 cells per well for SCC-25; 700 cells per well for A-431; 1000 cells per well for HPEK; 500 cells per well for C2-C12. The cells were treated with compounds at indicated final concentrations (diluted from the 1000× stock-solutions in DMSO to a final DMSO concentration of 0.1% v/v in H2O (Water For Injection, WFI, Fisherscientific #10378939)) or with the empty carrier DMSO at 0.1% v/v as control for 5 days. At day 5 after starting the treatments the cells were subjected to the alamarBlue® Proliferation Assay (Bio-Rad Serotec GmbH, BUF012B) according to the protocol of the manufacturer. The readout was taken with a multi-well plate-reader in the fluorescence mode with applying a filter for excitation at 560 nm (band width 10 nm) and for emission at 590 nm (band width 10 nm). Control treatments for growth inhibition with commercial compounds such as Methotrexate (MTREX) and Resveratrol (RES) were included on every plate. Some of the test compounds of the present invention were obtained and applied as their salts. According cases are indicated in the column “Specification” in Table 30 to Table 62 and by their sum formula in Table 63.
(§1) The assays were performed in duplicate or more replicates of independent single experiments each containing a six-fold replicate for every condition. For every individual plate, the measured fluorescence intensity values of the conditions with compound treatment were normalized against the corresponding equally weighted arithmetic mean of the fluorescence intensity values of the six DMSO treated control wells in order to obtain the relative values to a baseline level of 1.0.
Two independent outlier analyses were performed according to the methods by Peirce and Chauvenet (Ross, Journal of Engineering Technology 2003, 1-12). Outliers confirmed by at least one of the methods were excluded from the calculations but not more than one value out of six per compound within a single experiment. The weighted arithmetic mean (here abbreviated as AVEw) for each compound was calculated from the normalized values over all independent replicates of the single experiments comprising the six replicates each. The corresponding standard deviation for the weighted arithmetic mean was calculated according to the method described by Bronstein et al. (Bronstein, Semendjajew, Musiol, Muhlig, Taschenbuch der Mathematik, 5th edition 2001 (German), publisher: Verlag Harri Deutsch, Frankfurt am Main and Thun) and was combined with the Gauβ′ error propagation associated with the performed calculation for the normalization. The resulting standard deviation is herein referred to as “combined standard deviation”. […]

[2] = tested on: HeLa cells (human cervical adenocarcinoma cells); assay: Proliferation assay (alamarBlue) with HeLa cells; assay type: cell-based
Text: The antiproliferative activities of compounds falling under formula (Ia), (Tb) and (Ic), respectively, were investigated on cells or cell lines originating from a disorder of the haematopoietic system, including the myeloid cell compartment and the lymphoid cell compartment (T-cells and B-cells), the neuroendocrine system, the cervix, the breast, the ovaries, the lung, the gastrointestinal tract, and the mucosal epithelium, as well as from the skin epithelium and from the muscle. To this end, HL-60 cells, NB-4 cells, HH cells, RPMI-8402 cells, TANOUE cells, TT cells, HeLa cells, MDA-MB-231 cells, FU-OV-1 cells, LOU-NH91 cells, 23132/87 cells, CAL-27 cells, BHY cells, SCC-25 cells, A-431 cells, human primary epidermal keratinocytes (HPEK), and C2C12 cells were seeded into 96-well plates suitable for fluorescence assays (CORNING #3598) at following initial cell numbers: 1000 cells per well for HL-60; 1000 cells per well for NB-4; 5000 cells per well for HH; 5000 cells per well for RPMI-8402; 1500 cells per well for TANOUE; 9000 cells per well for TT; 2000 cells per well for HeLa; 3000 cells per well for MDA-MB-231; 3000 cells per well for FU-OV-1; 4000 cells per well for LOU-NH91; 2000 cells per well for 23132/87; 2000 cells per well for CAL-27; 1500 cells per well for BHY; 1500 cells per well for SCC-25; 700 cells per well for A-431; 1000 cells per well for HPEK; 500 cells per well for C2-C12. […] The readout was taken with a multi-well plate-reader in the fluorescence mode with applying a filter for excitation at 560 nm (band width 10 nm) and for emission at 590 nm (band width 10 nm). […]
as §1, with “1.0. […]” for “1.0.”

SMILES: Oc1ccc(C=Cc2cc(O)cc(O)c2)cc1 [RES, resveratrol, reference compound]
- Activity Range: weighted arithmetic mean (AVEw) of normalized fluorescence intensity relative to DMSO basis level 1.0 ([1]; 20 μM): 0.4 ± 0.1
- activity at 20 µM ([1]; Homo sapiens, read-out: Activity Range: weighted arithmetic mean (AVEw) of normalized fluorescence intensity relative to DMSO basis level 1.0): 40 ± 10%
- Activity Range: weighted arithmetic mean (AVEw) of normalized fluorescence intensity relative to DMSO basis level 1.0 ([2]; compound at 20 μM): 0.9 ± 0.0
- Activity Range: weighted arithmetic mean (AVEw) of normalized fluorescence intensity relative to DMSO basis level 1.0 ([2]; control at 40 μM): 0.4 ± 0.1
